In patent US20110098351A1, “Lactone compounds which can be used as antioxidant agents in pharmaceutical, cosmetic or food compositions and their method of preparation” (COMMISSISSARIAT A L'ENERGIE ATOMIQUE, priority 2002, published 2011):

Tests used:
[1] = test system: IL-10; assay: IL-10 production by lipopolysaccharide-activated human PBMC, cytometric sandwich ELISA; format: cell-based; details: 10^-8 M to 10^-5 M, Salmonella abortus equi lipopolysaccharide 5 μg/ml, 24 hours, FIGS. 4 and 5
Description: (§1) This liposaccharide is an endotoxin located on the outer membrane of Gram-negative bacteria. In particular, it stimulates the production of proinflammatory cytokines by the mononuclear cells (monocytes, microphages) of the infected host.
(§2) This test is carried out in the following manner. […]
(§3) More specifically, the detection of the cytokines present in the samples is measured with the aid of a “sandwich” type cytometric ELISA assay. Microparticles (beads) of polystyrene (of 6 different types, each being labelled with a different quantity of fluorescent dye whose FL-3 emission wavelength is about 650 nm) are coupled to an antibody specific for one of the […] TNFα, IL-2, IL-10. […] The cytokines captured are detected with the aid of a directly performed immunological test which uses 2 antibodies specific for each cytokine, coupled to phycoerythrin which emits at an FL-2 wavelength of about 585 nm (Ab-PE). After washing the excess Ab-PE, the presence of the cytokines is measured by flow cytometry.
(§4) The fluorescence is measured based on the 6 FL-3 fluorescence intensities and based on the FL-2 wavelength. The intensity of the […] fluorescence makes it possible to determine the quantity of each cytokine present in the sample (in comparison with standard curves). […]

[2] = test system: Human thyroid carcinoma K1 cells; assay: Protection of K1 cells against cisplatin, sulphorhodamine B test; format: cell-based; details: norbadione 20 μg/ml added two hours before cisplatin 12 to 100 μM, two days, FIG. 7
Description: This test consists in measuring, in the presence of norbadione in the diacid or dipotassium salt form, the rate of survival of cells treated with cisplatin.
Human thyroid carcinoma K1 cells are cultured in flat-bottomed 96-well microtest plates in the presence of a single concentration (20 μg/ml) of norbadione in the diacid or dipotassium salt form. After two hours, a genotoxic agent, cisplatin, is added to the culture medium in increasing concentrations (from 12 to 100 μm). Two days later, the number of cells is determined by means of the sulphorhodamine B (termed SRB) test, which measures the quantity of cellular proteins.
Sulphorhodamine B (termed SRB) is an anionic dye which binds electrostatically to cellular proteins. This test is frequently used for the evaluation of the cytotoxic and cytostatic activities of novel antitumour drugs.
Further information relating to this technique is available in the article by Papazisis et al. “Optimization of the sulforhodamine B colorimetric assay”, J. Immunol. Meth, 208, pages 151-158, 1997 [8].
The results of this test are grouped together in FIG. 7, which represents the fluorescence observed after addition of SRB (expressed as arbitrary fluorescence units) as a function of the cisplatin concentration (in μM).

[3] = test system: TNF-α; assay: TNF-α production by lipopolysaccharide-activated human PBMC, cytometric sandwich ELISA; format: cell-based; details: 10^-8 M to 10^-5 M, Salmonella abortus equi lipopolysaccharide 5 μg/ml, 24 hours, FIGS. 4 and 5
Description: as §1, §2, §3, §4

[4] = test system: RDM4 cell cultures (AKR mouse lymphomas); assay: Protection of RDM4 cells subjected to ionizing radiation, Uptiblue test; format: cell-based; details: for number of living cells after irradiation (Uptiblue fluorescence, A.F.U.): 0.12 to 20 μg/ml added two hours before X rays 15 MV, 8 Gy, sixth day, FIG. 6
Description: This test consists in measuring, in the presence or in the absence of norbadione in diacid or dipotassium salt form, the rate of survival of cells treated with ionizing radiation, with the aid of selective indicators for certain cellular organelles such as mitochondria.
Samples of norbadione in diacid or dipotassium salt form are added to RDM4 cell cultures (AKR mouse lymphomas) in increasing concentrations (from 0.12 to 20 μg/ml), two hours before irradiation. This is carried out by exposing microtest plates containing the cells to X rays of 15 MV, at 8 Gy, the culture medium being unchanged.
The number of living cells is determined on the sixth day by means of the Uptiblue test (which consists in measuring the micochondrial activity of the cells). The Uptiblue reagent (reazurin, also marketed under the ALAMAR BLUE trade mark) is a coloured oxidation-reduction indicator. The reazurin (blue and nonfluorescent) is reduced to resorufin (pink and fluorescent) by living cells.
Experimentally, the Uptiblue (diluted ¼ in the culture medium) is added to the cells in an amount of 20 μl per 200 μl well. After incubating for 4 hours at 37° C., the fluorescence is measured at a wavelength of 590 nm, after excitation at a wavelength of 530 nm with the aid of a fluorescence microplate reader (Fluorolite 1000, Dynex). The fluorescence intensity is proportional to the number of living cells. It is expressed as “arbitrary fluorescence unit”. This value depends on the setting of the apparatus (in particular the voltage) and the background noise (due to the fluorescence emitted by wells not containing cells, but containing Uptiblue). The latter value is subtracted from the experimental values.
The results of this test are grouped together in FIG. 6, which represents the fluorescence observed which makes it possible to quantify the number of living cells, the said fluorescence being expressed as arbitrary fluorescence units on the y-axis of the graph (A.F.U) as a function of the concentration of norbadione in the diacid or dipotassium salt form, noted [Nor-A] or [Nor-B] (in μg/ml).

[5] = test system: thymidine; assay: Thymidine degradation test, chemical oxidant stress (Fenton's reagent), competition ELISA of remaining thymidine; format: biochemical; details: dipotassium salt (Nor-B); Fenton's reagent 0.35 mM FeSO4/EDTA, 35 mM H2O2; thymidine 70 μM, antioxidant 20 μM; FIG. 3; compared with conventional antioxidants (1)-(6)
Description: (§5) The evaluation of the antioxidant activity of the dipotassium salt of norbadione was carried out by a screening test in vitro.
(§6) This test is based on the monitoring of the degradation of thymidine subjected to various oxidant stresses in the presence of various antioxidant agents, which are norbadione in dipotassium salt form (called Nor-B in FIGS. 1 to 3) in accordance with the invention, and the following antioxidant agents: quercitin (1), fisetin (2), myricetin (3), catechin (4), 7-hydroxy-4-methyl-8-nitrocoumarin (5), Trolox (6) in FIGS. 1 to 3.
(§7) In the presence of an antioxidant, thymidine is protected more or less effectively according to the nature of the said antioxidant. The efficacy of the antioxidant is quantified by assaying the remaining thymidine (quantified as % on the y-axis of the graph) with the aid of an immunoenzymatic assay of the so-called “competition” ELISA type. This ELISA assay consists in producing competition, for binding to a thymidine-specific monoclonal antibody attached to a solid phase, between the thymidine remaining at the end of test and the thymidine labelled with an enzyme (acetylcholine esterase). After washing, the bound enzyme is quantified by colorimetric detection with the aid of 5,5′-dithiobis(2-nitrobenzoic acid) (termed Ellmann's reagent) and in the presence of […]. […]

[6] = test system: thymidine; assay: Thymidine degradation test, gamma irradiation (caesium 137), competition ELISA of remaining thymidine; format: biochemical; details: dipotassium salt (Nor-B); gamma irradiation 3 h 30 min, 137Cs; thymidine 15 μM, antioxidant 12 μM; FIG. 1; compared with quercetin, fisetin, myricetin, catechin, 7-hydroxy-4-methyl-8-nitrocoumarin, Trolox
Description: as §5, §6, §7

[7] = test system: rat aorta rings; assay: Relaxation of rat aorta rings induced by SYN-1 (3-morpholinosydnonimine, NO radicals); details: dipotassium salt form, 100 μM; FIG. 9
Description: (§8) The objective of this example is to show the antioxidant activity of norbadione in the dipotassium salt form on rat aorta rings.
During a second series of tests, rat aorta rings are subjected to SYN-1 (3-morpholinosydnonimine), which generates NO radicals, inducing relaxation of the rat aorta rings, and the rate of relaxation of these rings is measured. In the presence of norbadione, the rate of relaxation of the rings is measured under the same conditions as those mentioned above. The results are presented in FIG. 9, which represents the rate of vascular relaxation of the rings R(%) as a function of the Sin−1 concentration [Sin−1] (μM), in the absence of norbadione (curve a) and in the presence of norbadione (100 μM) (curve b).

[8] = test system: thymidine; assay: Thymidine degradation test, ultraviolet irradiation at 254 nm with H2O2, competition ELISA of remaining thymidine; format: biochemical; details: dipotassium salt (Nor-B); UV 254 nm (1.75 J/cm^2), 5 mM H2O2; thymidine 70 μM, antioxidant 100 μM; FIG. 2; compared with conventional antioxidants (1)-(6)
Description: as §5, §6, §7

[9] = test system: rat aorta rings; assay: Contraction of rat aorta rings induced by pyrogallol (superoxide radicals); details: dipotassium salt form, 100 μM; FIG. 8
Description: as §8
During a first series of tests, rat aorta rings are subjected, in a first instance, to pyrogallol, which generates superoxide radicals, these radicals inducing contraction of the rat aorta rings and the rate of contraction of these rings is measured in the absence of norbadione.
In a second instance, the same operations are repeated, under the same conditions as those mentioned above, this time in the presence of norbadione.
The results are grouped together in FIG. 8, which represents the rate of vascular contraction of the rings C(g) as a function of the concentration of pyrrogallol [Pyr] (μM), in the absence of norbadione (curve a) and in the presence of norbadione at the concentration of 100 μM (curve b).

Row | Compound | production of the cytokine IL-10 (percentage response relative to control) [1] | cytotoxicity of cisplatin in the presence of norbadione (SRB test) [2] | production of the cytokine TNF-α (percentage response relative to control) [3] | number of living cells after irradiation (Uptiblue fluorescence, A.F.U.) ([4]; RDM4 cells) | number of living cells after irradiation (Uptiblue fluorescence, A.F.U.) ([4]; RDM4 cells, listed as norbadione diacid form) | number of living cells after irradiation (Uptiblue fluorescence, A.F.U.) ([4]; RDM4 cells, listed as norbadione disalt form) | antioxidant power (percentage of thymidine remaining after oxidant stress) [5] | antioxidant power (percentage of thymidine remaining after oxidant stress) [6] | relaxation of the aorta rings caused by SYN-1 [7] | antioxidant power (percentage of thymidine remaining after oxidant stress) [8] | number of living cells after irradiation (Uptiblue fluorescence) at the highest concentration ([4]; RDM4 cells, X rays 8 Gy, from a norbadione concentration of 20 μg/ml) | effect on the growth and the viability of the RDM4 cells ([4]; without irradiation, even at 20 μg/ml) | contraction of the aorta rings caused by pyrogallol [9]
1 | O=C1O/C(=C(/C(=O)O)c2ccc(O)cc2)C(O)=C1c1cc2c3c(c(O)cc(C4=C(O)/C(=C(\C(=O)O)c5ccc(O)cc5)OC4=O)c3c1)OC2=O [Nor-A, norbadione] | significant dose-dependent reduction | very markedly attenuated | significant dose-dependent reduction | large increase | protects the cells against ionizing radiation in a significant and dose-dependent manner |  |  |  |  |  |  |  | 
2 | O=C1O/C(=C(/C(=O)[O-])c2ccc(O)cc2)C(O)=C1c1cc2c3c(c(O)cc(C4=C(O)/C(=C(\C(=O)[O-])c5ccc(O)cc5)OC4=O)c3c1)OC2=O.[K+].[K+] [Nor-B, norbadione] | significant dose-dependent reduction | very markedly attenuated | significant dose-dependent reduction | large increase |  | protects the cells against ionizing radiation in a significant and dose-dependent manner |  |  |  |  |  |  | 
3 | norbadione |  |  |  |  |  |  | best antioxidant power | best antioxidant power | reduced | best antioxidant power | decreases considerably | without effect | suppressed
